According to patent US20070021435A1, “AMINOPYRIMIDINES AS KINASE MODULATORS” (priority 2005, published 2007):

How the values were obtained:
[1] = target: T1, isolated kinase domain of the human c-kit receptor (Homo sapiens, UniProt P10721); test: c-Kit fluorescence polarization kinase assay; format: biochemical; conditions: 1 nM c-kit, 50 uM ATP, 45 minutes; uncertainty ±10%
T1 construct: isolated kinase domain of the human c-kit receptor; purchased ProQinase lot SP005
Description: The compounds of the present invention are also specific inhibitors of c-Kit. Selection of preferred compounds of Formula I for use as c-Kit inhibitors was performed in the following manner using an in vitro kinase assay to measure inhibition of the isolated kinase domain of the human c-kit receptor in a fluorescence polarization (FP) protocol. The c-kit assay utilized the fluorescein-labeled phosphopeptide and the anti-phosphotyrosine antibody included in the Panvera Phospho-Tyrosine Kinase Kit (Green) supplied by Invitrogen. When c-kit phosphorylated the poly Glu4Tyr, the fluorescein-labeled phosphopeptide was displaced from the anti-phosphotyrosine antibody by the phosphorylated poly Glu4Tyr, thus decreasing the FP value. The c-kit kinase reaction was incubated at room temperature for 45 minutes under the following conditions: 1 nM c-kit (ProQinase, lot SP005), 100 ug/mL poly Glu4Tyr, 50 uM ATP, 5 mM MgCl2, 1 mM DTT, 0.01% Tween-20, 1% DMSO or compound in […], pH 7.5. The kinase reaction was stopped with the addition of EDTA. The fluorescein-labeled phosphopeptide and the anti-phosphotyrosine antibody were added and incubated for 30 minutes at room temperature and fluorescence polarization was read. Data points were an average of triplicate samples.

[2] = target: T2, TrkB (Homo sapiens, UniProt Q16620); test: TrkB fluorescence polarization kinase assay; format: biochemical; conditions: 50 nM TrkB, 150 uM ATP, 30 minutes; uncertainty ±10%
T2 construct: purchased Upstate 14-507M
Description: The compounds of the present invention are also specific inhibitors of TrkB. Selection of preferred compounds of Formula I for use as TrkB inhibitors was performed in the following manner. The TrkB assay utilized the fluorescein-labeled phosphopeptide and the anti-phosphotyrosine antibody included in the Panvera Phospho-Tyrosine Kinase Kit (Green) supplied by Invitrogen. When TrkB phosphorylated poly Glu4Tyr, the fluorescein-labeled phosphopeptide was displaced from the anti-phosphotyrosine antibody by the phosphorylated poly Glu4Tyr, thus decreasing the FP value. The TrkB kinase reaction was incubated at room temperature for 30 minutes under the following conditions: 50 nM TrkB (Upstate, catalog # 14-507M), 20 ug/mL poly Glu4Tyr, 150 uM ATP, 5 mM MgCl2, 1% compound in DMSO. The kinase reaction was stopped with the addition of EDTA. The fluorescein-labeled phosphopeptide and the anti-phosphotyrosine antibody were added and incubated for 30 minutes at room temperature. Data points were an average of triplicate samples.

T2 sequence (Q16620 526-822 limits assumed): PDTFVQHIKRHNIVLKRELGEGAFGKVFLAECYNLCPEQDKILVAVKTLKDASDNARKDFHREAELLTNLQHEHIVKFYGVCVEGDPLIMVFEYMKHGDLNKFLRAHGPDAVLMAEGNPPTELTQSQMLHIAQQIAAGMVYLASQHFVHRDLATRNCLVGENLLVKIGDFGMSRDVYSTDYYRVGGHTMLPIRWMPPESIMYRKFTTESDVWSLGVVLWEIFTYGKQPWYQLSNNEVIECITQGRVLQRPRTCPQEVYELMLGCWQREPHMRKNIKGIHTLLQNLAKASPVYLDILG
T1 sequence (P10721 589-937 limits assumed): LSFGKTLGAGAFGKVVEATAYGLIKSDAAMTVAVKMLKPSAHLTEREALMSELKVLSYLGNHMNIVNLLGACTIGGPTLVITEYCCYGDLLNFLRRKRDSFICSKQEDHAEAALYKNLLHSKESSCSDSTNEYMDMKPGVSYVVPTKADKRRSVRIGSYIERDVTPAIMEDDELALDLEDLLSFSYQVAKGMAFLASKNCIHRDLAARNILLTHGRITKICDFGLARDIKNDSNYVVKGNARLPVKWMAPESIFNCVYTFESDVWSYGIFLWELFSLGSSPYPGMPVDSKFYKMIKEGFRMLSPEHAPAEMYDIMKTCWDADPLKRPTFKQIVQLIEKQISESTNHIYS

SMILES	IC50 [1]	IC50 [2]
CO/N=C/c1c(N)ncnc1N1CCN(C(=O)Nc2ccc(OC(C)C)cc2)CC1 [Example 1, 4-[6-Amino-5-(methoxyimino-methyl)-pyrimidin-4-yl]-piperazine-1-carboxylic acid (4-isopropoxy-phenyl)-amide]	10.5 nM	800 nM
CC(C)Oc1ccc(NC(=O)N2CCN(c3ncnc(N)c3/C=N/OCCN3CCOCC3)CC2)cc1 [Example 2, 4-{6-Amino-5-[(2-morpholin-4-yl-ethoxyimino)-methyl]-pyrimidin-4-yl}-piperazine-1-carboxylic acid (4-isopropoxy-phenyl)-amide]	26 nM	10100 nM
CC(C)Oc1ccc(NC(=O)N2CCN(c3ncnc(N)c3/C=N/OCCCO)CC2)cc1 [Example 3, 4-{6-Amino-5-[(3-hydroxy-propoxyimino)-methyl]-pyrimidin-4-yl}-piperazine-1-carboxylic acid (4-isopropoxy-phenyl)-amide]		1300 nM
CO/N=C/c1c(N)ncnc1N1CCN(C(=O)Nc2ccc(N3CCCCC3)cc2)CC1 [Example 4, 4-[6-Amino-5-(methoxyimino-methyl)-pyrimidin-4-yl]-piperazine-1-carboxylic acid (4-piperidin-1-yl-phenyl)-amide]		4000 nM
CO/N=C/c1c(N)ncnc1N1CCN(C(=O)Nc2ccc(N3CCOCC3)cc2)CC1 [Example 5, 4-[6-Amino-5-(methoxyimino-methyl)-pyrimidin-4-yl]-piperazine-1-carboxylic acid (4-morpholin-4-yl-phenyl)-amide]		8400 nM
CO/N=C/c1c(N)ncnc1N1CCN(C(=O)Nc2ccc(OC3CCC3)nc2)CC1 [Example 6, 4-[6-Amino-5-(methoxyimino-methyl)-pyrimidin-4-yl]-piperazine-1-carboxylic acid (6-cyclobutoxy-pyridin-3-yl)-amide]		3500 nM
CO/N=C/c1c(N)ncnc1N1CCN(C(=O)Cc2ccc(C(C)C)cc2)CC1 [Example 7, 4-Amino-6-{4-[2-(4-isopropyl-phenyl)-acetyl]-piperazin-1-yl}-pyrimidine-5-carbaldehyde O-methyl-oxime]		500 nM
CO/N=C/c1c(N)ncnc1N1CCN(C(=O)Nc2ccc(C(C)C)cc2)CC1 [Example 8, 4-[6-Amino-5-(methoxyimino-methyl)-pyrimidin-4-yl]-piperazine-1-carboxylic acid (4-isopropyl-phenyl)-amide]		1100 nM
CCO/N=C/c1c(N)ncnc1N1CCN(C(=O)Nc2ccc(OC(C)C)cc2)CC1 [Example 9, 4-[6-Amino-5-(ethoxyimino-methyl)-pyrimidin-4-yl]-piperazine-1-carboxylic acid (4-isopropoxy-phenyl)-amide (anti-configuration for —C═N—O—)]		600 nM
CCO/N=C\c1c(N)ncnc1N1CCN(C(=O)Nc2ccc(OC(C)C)cc2)CC1 [Example 10, 4-[6-Amino-5-(ethoxyimino-methyl)-pyrimidin-4-yl]-piperazine-1-carboxylic acid (4-isopropoxy-phenyl)-amide (syn-configuration for —C═N—O—)]		11000 nM
CCO/N=C/c1c(N)ncnc1N1CCN(C(=O)Nc2ccc(N3CCCCC3)cc2)CC1 [Example 11, 4-[6-Amino-5-(ethoxyimino-methyl)-pyrimidin-4-yl]-piperazine-1-carboxylic acid (4-piperidin-1-yl-phenyl)-amide]	5.1 nM	2600 nM
CCO/N=C/c1c(N)ncnc1N1CCN(C(=O)Nc2ccc(OC3CCC3)nc2)CC1 [Example 12, 4-[6-Amino-5-(ethoxyimino-methyl)-pyrimidin-4-yl]-piperazine-1-carboxylic acid (6-cyclobutoxy-pyridin-3-yl)-amide]		1600 nM

The remaining lines, values ahead:

IC50 [1]	IC50 [2]	SMILES
	2200 nM	CCO/N=C/c1c(N)ncnc1N1CCN(C(=O)Cc2ccc(C(C)C)cc2)CC1 [Example 13, 4-Amino-6-{4-[2-(4-isopropyl-phenyl)-acetyl]-piperazin-1-yl}-pyrimidine-5-carbaldehyde O-ethyl-oxime (anti-configuration for —C═N—O—)]
	1400 nM	CCO/N=C\c1c(N)ncnc1N1CCN(C(=O)Cc2ccc(C(C)C)cc2)CC1 [Example 14, 4-Amino-6-{4-[2-(4-isopropyl-phenyl)-acetyl]-piperazin-1-yl}-pyrimidine-5-carbaldehyde O-ethyl-oxime (syn-configuration for —C═N—O—)]
	7760 nM	CCO/N=C/c1c(N)ncnc1N1CCN(C(=O)Nc2ccc(N3CCOCC3)cc2)CC1 [Example 15, 4-[6-Amino-5-(ethoxyimino-methyl)-pyrimidin-4-yl]-piperazine-1-carboxylic acid (4-morpholin-4-yl-phenyl)-amide]
	11100 nM	CC(C)Oc1ccc(NC(=O)N2CCN(c3ncnc(N)c3/C=N/OCC(=O)N3CCOCC3)CC2)cc1 [Example 16, 4-{6-Amino-5-[(2-morpholin-4-yl-2-oxo-ethoxyimino)-methyl]-pyrimidin-4-yl}-piperazine-1-carboxylic acid (4-isopropoxy-phenyl)-amide]
	800 nM	CO/N=C/c1c(N)ncnc1N1CCN(C(=O)Nc2ccc(OC3CCCC3)nc2)CC1 [Example 17, 4-[6-Amino-5-(methoxyimino-methyl)-pyrimidin-4-yl]-piperazine-1-carboxylic acid (6-cyclopentyloxy-pyridin-3-yl)-amide]
	2600 nM	CO/N=C/c1c(N)ncnc1N1CCN(C(=O)Nc2ccc(N3CCCC3)cc2)CC1 [Example 18, 4-[6-Amino-5-(methoxyimino-methyl)-pyrimidin-4-yl]-piperazine-1-carboxylic acid (4-pyrrolidin-1-yl-phenyl)-amide]
	1680 nM	CO/N=C/c1c(N)ncnc1N1CCN(C(=O)Nc2ccc(C3CCCCC3)cc2)CC1 [Example 19, 4-[6-Amino-5-(methoxyimino-methyl)-pyrimidin-4-yl]-piperazine-1-carboxylic acid (4-cyclohexyl-phenyl)-amide]
	15600 nM	CO/N=C/c1c(N)ncnc1N1CCN(C(=O)Nc2ccc(Cl)cc2)CC1 [Example 20, 4-[6-Amino-5-(methoxyimino-methyl)-pyrimidin-4-yl]-piperazine-1-carboxylic acid (4-chloro-phenyl)-amide]
	7400 nM	CO/N=C/c1c(N)ncnc1N1CCN(C(=O)Nc2ccc(Oc3ccccc3)cc2)CC1 [Example 21, 4-[6-Amino-5-(methoxyimino-methyl)-pyrimidin-4-yl]-piperazine-1-carboxylic acid (4-phenoxy-phenyl)-amide]
